Values after ≈ are worked out from the molar mass of the structure shown. Where two headings read alike, the source gives them in different places.
Columns and labels:
Pseudomonas species = conditions: in words; prior art; cited from earlier work
S. pneumoniae A-9585 = assay: In vitro MIC, tube dilution in Nutrient Broth, overnight at 37° C.; type: cell-based; conditions: Streptococcus pneumoniae, A9585
S. pyogenes A-9604 = assay: as above; type: cell-based; conditions: Streptococcus pyogenes, A9604
S. aureus A-9537 = assay: as above; type: cell-based; conditions: Staphylococcus aureus
[1] = tested on: S. aureus A-9606 (Pen-res.); assay: as above; type: cell-based; conditions: Staphylococcus aureus
[2] = tested on: S. aureus A15097 (Meth-res.); assay: microbe, parasite or virus in culture; type: cell-based; conditions: Staphylococcus aureus
S. faecalis A20688 = assay: In vitro MIC, tube dilution in Nutrient Broth, overnight at 37° C.; type: cell-based; conditions: Enterococcus faecalis
E. coli A15119 [3] = assay: as above; type: cell-based; conditions: Escherichia coli
E. coli A20341-1 = assay: as above; type: cell-based
P. vulgaris A21559 [4] = assay: as above; type: cell-based; conditions: Proteus vulgaris
P. aeruginosa A-9843A [5] = assay: as above; type: cell-based; conditions: Pseudomonas aeruginosa, A9843A
H. influenzae A-9833 = assay: as above; type: cell-based; conditions: Haemophilus influenzae, A9833
H. influenzae A20178 = assay: as above; type: cell-based; conditions: Haemophilus influenzae
H. influenzae A21518 = assay: as above; type: cell-based; conditions: Haemophilus influenzae
H. influenzae A21522 = assay: as above; type: cell-based; conditions: Haemophilus influenzae
B. fragilis A22862 = assay: as above; type: cell-based; conditions: Bacteroides fragilis
E. cloacae A-9659 [6] = assay: Protective effect in the intramuscular treatment of infected mice; type: in vivo; conditions: Enterobacter cloacae, A9659, im; i.m., challenge 4 × 10^6 organisms, treated 1 and 3.5 h postinfection; read-out: PD50/Treatment
Experimental: (§1) 3.5 hours (all others); 5 mice were used in each test.

E. coli A15119 [7] = assay: as above; type: in vivo; conditions: Escherichia coli, A15119, im; i.m., challenge 6 × 10^6 organisms, treated 1 and 3.5 h postinfection; read-out: PD50/Treatment
Experimental: as §1

K. pneumoniae A-9664 [8] = assay: as above; type: in vivo; conditions: Klebsiella pneumoniae, A9664, im; i.m., challenge 7 × 10^6 organisms, treated 1 and 3.5 h postinfection; read-out: PD50/Treatment
Experimental: as §1

M. morganii A15149 = assay: as above; type: in vivo; conditions: Morganella morganii, A15149, im; i.m., challenge 7 × 10^5 organisms, treated 1 and 3.5 h postinfection; read-out: PD50/Treatment
Experimental: as §1

P. aeruginosa A-9843a [9] = assay: as above; type: in vivo; conditions: Pseudomonas aeruginosa, A9843A, im, challenge 3 × 10^4 organisms, treated 0 and 2 h postinfection; read-out: PD50/Treatment
Experimental: as §1

P. aeruginosa A20481 = assay: as above; type: in vivo; conditions: Pseudomonas aeruginosa, A20481, im; i.m., challenge 3 × 10^4 organisms, treated 0 and 2 h postinfection; read-out: PD50/Treatment
Experimental: as §1

P. aeruginosa A20599 = assay: as above; type: in vivo; conditions: Pseudomonas aeruginosa, A20599, im; i.m., challenge 9 × 10^4 organisms, treated 0 and 2 h postinfection; read-out: PD50/Treatment
Experimental: as §1

P. rettgeri A15167-2 = assay: as above; type: in vivo; conditions: Providencia rettgeri, A151672, im, read-out: PD50/Treatment
Experimental: as §1

P. vulgaris A21559 [10] = assay: as above; type: in vivo; conditions: Proteus vulgaris, A21559, im; i.m., challenge 4 × 10^5 organisms, treated 0 and 2 h postinfection; read-out: PD50/Treatment
Experimental: as §1

S. aureus A-9606 = assay: as above; type: in vivo; conditions: Staphylococcus aureus, A9606, im; i.m., challenge 1 × 10^9 organisms, treated 1 and 3.5 h postinfection; read-out: PD50/Treatment
Experimental: as §1

S. marcescens A20335 = assay: as above; type: in vivo; conditions: Serratia marcescens, A20335, im; i.m., challenge 9 × 10^6 organisms, treated 1 and 3.5 h postinfection; read-out: PD50/Treatment
Experimental: as §1

P. mirabilis A-9900 [11] = assay: as above; type: in vivo; conditions: Proteus mirabilis, A9900, im, read-out: PD50/Treatment
Experimental: The PD50 (dose in mg/kg required to give protection to 50% of the infected mice) is indicated.
Treatment Schedule: Mice were treated i.m. with drugs 0 and 2 hours

[12] = Blood levels in mice after intramuscular administration; type: in vivo; conditions: mouse, im, 20 mg/kg i.m.
From the text: *t1/2refers to halflife in minutes
**AUC refers to the area under the curve

[13] = Urinary recovery after intramuscular administration to mice; type: in vivo; conditions: mouse, urine, im, 20 mg/kg, 20 mg/kg i.m., read-out: Urinary recovery, Percentage of Dose Recovered
From the text: | a single test; 4 mice per compound.

in vivo = conditions: mouse
K. pneumoniae A-9664 [14] = assay: microbe, parasite or virus in culture; conditions: Klebsiella pneumoniae, A9664
K. pneumoniae A20468 = assay: microbe, parasite or virus in culture; conditions: Klebsiella pneumoniae
P. mirabilis A-9900 [15] = assay: microbe, parasite or virus in culture; conditions: Proteus mirabilis, A9900
P. morganii A15153 = assay: microbe, parasite or virus in culture; conditions: Morganella morganii
S. marcescens A20019 = assay: microbe, parasite or virus in culture; conditions: Serratia marcescens
E. cloacae A-9659 [16] = assay: microbe, parasite or virus in culture; conditions: Enterobacter cloacae, A9659
E. cloacae A-9656 = assay: microbe, parasite or virus in culture; conditions: Enterobacter cloacae, A9656
B. fragilis A22053 = assay: microbe, parasite or virus in culture; conditions: Bacteroides fragilis
B. fragilis A22863 = assay: microbe, parasite or virus in culture; conditions: Bacteroides fragilis
[17] = Toxicity after intracranial administration to mice; conditions: mouse, in vivo

For `C[C@@H](O)[C@H]1C(=O)N2C(C(=O)O)=C(SCCN)C[C@H]12` [thienamycin], the “activity against various Pseudomonas species” value (Pseudomonas species) is listed as “notable activity”.

Compound `C[C@@H](O)[C@H]1C(=O)N2C(C(=O)[O-])=C(SCC[S+]3CCCC3)C[C@H]12` [Example 1, 3-[2-(1-tetrahydrothiophenium)ethylthio]-6α-[1-(R)-hydroxyethyl]-7-oxo-1-azabicyclo[3.2.0]hept-2-ene-2-carboxylate] has an MIC (S. pneumoniae A-9585) of 0.002 µg/mL (≈ 0.00582 µM), an MIC (S. pyogenes A-9604) of 0.004 µg/mL (≈ 0.0116 µM) and an MIC (S. aureus A-9537; A9537, S. aureus A-9537) of 0.008 µg/mL (≈ 0.0233 µM). It also gave an MIC (S. aureus A-9537; A9537, S. aureus A-9537 +50% serum) of 0.03 µg/mL (≈ 0.0873 µM), an MIC [1] of 0.016 µg/mL (≈ 0.0466 µM) and an MIC [2] of 2 µg/mL (≈ 5.82 µM). It also gave an MIC (S. faecalis A20688) of 0.5 µg/mL (≈ 1.46 µM), an MIC (E. coli A15119 [3]; A15119, E. coli A15119 (10^-2)) of 0.06 µg/mL (≈ 0.175 µM) and an MIC (E. coli A15119 [3]; A15119, E. coli A15119 (10^-3)) of 0.06 µg/mL (≈ 0.175 µM). The MIC (E. coli A15119 [3]; E. coli A15119 (10^-4 dil.), read-out: MIC) was 0.03 µg/mL (≈ 0.0873 µM), the MIC (E. coli A20341-1; E. coli A20341-1 (10^-3)) was 0.03 µg/mL (≈ 0.0873 µM) and the MIC (E. coli A20341-1; Escherichia coli, A203411, E. coli A20341-1 (10^-2)) was 0.06 µg/mL (≈ 0.175 µM). The MIC (E. coli A20341-1; Escherichia coli, A203411, E. coli A20341-1 (10^-4), read-out: MIC) was 0.03 µg/mL (≈ 0.0873 µM), the MIC (P. vulgaris A21559 [4]) was 0.03 µg/mL (≈ 0.0873 µM) and the MIC (P. aeruginosa A-9843A [5]) was 1 µg/mL (≈ 2.91 µM). It also gave an MIC (H. influenzae A-9833) of 8 µg/mL (≈ 23.3 µM), an MIC (H. influenzae A20178) of 8 µg/mL (≈ 23.3 µM) and an MIC (H. influenzae A21518) of 8 µg/mL (≈ 23.3 µM). The MIC (H. influenzae A21522) was 8 µg/mL (≈ 23.3 µM), the MIC (B. fragilis A22862) was 0.06 µg/mL (≈ 0.175 µM) and the ED50 (E. cloacae A-9659 [6]) was 1.3 mg/kg. The ED50 (E. coli A15119 [7]) was 1.6 mg/kg, the ED50 (K. pneumoniae A-9664 [8]) was 5 mg/kg and the ED50 (M. morganii A15149) was 3.3 mg/kg. For the same compound, the ED50 (P. aeruginosa A-9843a [9]) was 0.6 mg/kg, the ED50 (P. aeruginosa A20481) was 0.8 mg/kg and the ED50 (P. aeruginosa A20599) was 1.3 mg/kg. The ED50 (P. rettgeri A15167-2) was 8.7 mg/kg, the ED50 (P. vulgaris A21559 [10]) was 3.3 mg/kg and the ED50 (S. aureus A-9606) was 0.19 mg/kg. For the same compound, the ED50 (S. marcescens A20335) was 5 mg/kg, the ED50 (P. mirabilis A-9900 [11]) was 7.7 mg/kg and the AUC [12] was 7400 ng·h/mL. For the same compound, the half-life [12] was 9 min, the dose excreted at 3 h ([13]; 0-3 hours) was 15.6% and the dose excreted at 24 h ([13]; 0-24 hours) was 17.7 ± 2.9%. The dose excreted at 6 h ([13]; 3-6 hours) was 2.1%, the dose excreted at 24 h ([13]; 6-24 hours) was less than 0.2% and the NOAEL (in vivo) was roughly 5 mg/kg. The MIC (K. pneumoniae A-9664 [14]) was 0.06 µg/mL (≈ 0.175 µM), the MIC (K. pneumoniae A20468) was 0.13 µg/mL (≈ 0.378 µM) and the MIC (P. mirabilis A-9900 [15]) was 0.13 µg/mL (≈ 0.378 µM). For the same compound, the MIC (P. morganii A15153) was 0.06 µg/mL (≈ 0.175 µM), the MIC (S. marcescens A20019) was 0.06 µg/mL (≈ 0.175 µM) and the MIC (E. cloacae A-9659 [16]) was 0.13 µg/mL (≈ 0.378 µM). It also gave an MIC (E. cloacae A-9656) of 0.13 µg/mL (≈ 0.378 µM), an MIC (B. fragilis A22053) of 0.06 µg/mL (≈ 0.175 µM) and an MIC (B. fragilis A22863) of 0.06 µg/mL (≈ 0.175 µM). The LD50 [17] was greater than 40 mg/kg.
